Experimental data as given in US5770573A, “CS-1 peptidomimetics, compositions and methods of using the same” (Cytel Corporation, priority 1995, dated 1998).
Square brackets hold non-standard residues; d marks the D form. Peptide text beside a SMILES is read from it. * marks the point of attachment. NHOctadecyl = CCCCCCCCCCCCCCCCCCN*; NMeF = CN[C@@H](Cc1ccccc1)C(=O)O; Cha = N[C@@H](CC1CCCCC1)C(=O)O; NMeD = CN[C@@H](CC(=O)O)C(=O)O; NMeL = CN[C@@H](CC(C)C)C(=O)O; X8 = CCCCCCCCCCCCCCCCCCO*; Morpholide = C1CN(*)CCO1; Nle = CCCC[C@H](N)C(=O)O; PhAc = O=C(Cc1ccccc1)*; X1 = CCCCCCCCCCCCCCO*; Inp = O=C(O)C1CCNCC1; X4 = CCN(CC)C(=O)CO*; X5 = CCCCCCCCCCCCO*; Ahx = NCCCCCC(=O)O; Sar = CNCC(=O)O

Assays:
[1] = tested on: asthmatic rabbits; test: Treatment of asthmatic rabbits (house dust mite antigen challenge); format: in vivo, rabbit
Method: Six New Zealand white rabbits were immunized with house dust mite antigen from birth through four months of age. Upon immunization, three rabbits received a single nebulizer administration of the inhibitor compound, Compound ID No. 1051.01, N-phenylacetyl-Leu-Asp-Phe-morpholinamide in aqueous 50 percent ethanol as diluent in an amount of 100 mg/kg, and the other three received diluent alone. All of the rabbits were challenged with house dust mite antigen about 15-30 minutes after administration of the compound, with those animals not receiving compound serving as controls.
Once immunized and challenged, the inflammatory state subsides to a basal level within about three weeks. The three animals used as controls were thereafter used as subjects for receipt of an inhibitor compound, and the three rabbits that initially received the compound can serve as controls.
Such a crossover study was done here. Thus, the three initial control rabbits were treated with the above inhibitor compound in the above diluent at a time more than three weeks after the above study, and the three previous recipients of the compound were administered the diluent alone. All six were than challenged again.
Initial pulmonary function, measured by dynamic compliance (Cdyn) and lung resistance (RL) , and bronchoalveolar lavage (BAL) to obtain an effector cell count, here eosinophils, were conducted prior to administration of the compound or diluent for both portions of this crossover study. Similar assays were then taken one-half hourly after challenge for six hours (early phase allergic reaction) and at 24 hours after challenge (late stage allergic reaction) for both portions of this study.
These studies were conducted as described by W. J. Metzger in CRC Handbook of Late Phase Reactions, W. Dorsch, ed., Chapter 35, CRC Press, Boca Raton, Fla. (1990) pages 347-362.
The results of this study for the pulmonary function parameters are shown in FIG. 4A and FIG. 4B, in which data for the challenged, inhibitor compound-treated animals are shown as open circles and data for the challenged, untreated, control animals are shown in blackened circles.

[2] = target: VLA-4 (Homo sapiens, UniProt P05556+P13612); test: In vitro binding inhibition of 51Cr-labeled Jurkat cells to solid phase-bound CS-1 compound (SEQ ID NO:1); format: cell-based; design: inflammatory cells that contain the VLA-4 receptor [Jurkat cells; host or cells: Jurkat (human T lymphoblastic line); conditions: for Relative Potency: binding inhibition potency relative to standard compound of SEQ ID NO:3 = 1 (normalized IC50), about one-tenth or less assigned zero; for Relative Potency (prodrug compound): relative to SEQ ID NO:3 = 1, potency before the prodrug compound is enzymatically converted to an active form; for VLA-4 binding inhibition compared in words: compared with standard 10-mer of SEQ ID NO:3
Outline: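 51Cr-labeled human Jurkat cells were preincubated with compound 30 min at about 22° C, then allowed to bind to wells coated with CS-1 peptide or CS-1-OVA for 30 min at 37° C. After washing, bound cells were lysed with SDS and counted. IC50 is the concentration halving binding, normalized to SEQ ID NO: 3.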

[3] = tested on: delayed-type hypersensitivity murine model; test: Adoptive transfer delayed type hypersensitivity in mice (oxazolone); format: in vivo, mouse; conditions: expanded study; versus vehicle alone; 6 mg/kg/day s.c. pump, 24 hours
Method: An adoptive transfer delayed-type hypersensitivity murine model has been developed using splenic T cells primed to oxazolone. This model is described in Elices et al., Clin. Exp. Rheum., 11 (Suppl. 8):577-580 (1993), whose procedures were followed here.
Thus, BALB/c mice were shaved on the belly and painted (50 μl on the belly and 5 μl on each paw) with three percent oxazolone in acetone/olive oil (4:1) at days zero and 1. At day 5, the mice were sacrificed, their spleens removed, and splenic T cells were obtained via nylon wool columns.
Normal saline or saline containing 25×10^6 /animal of the oxazolone-immune T cells were separately injected into naive mice. The mice were then challenged by painting 10 μl of 2 percent oxazolone onto one ear each. All procedures were carried out under sterile conditions and in endotoxin-free buffers.
Prior to challenge or saline injection, the mice were implanted with pumps that subcutaneously administered normal saline, normal saline containing the compound, Compound ID No. 896.52, N-phenylacetyl-Leu-Asp-Phe-D-Pro-NH2, or normal saline containing a compound with a scrambled sequence continually at 6 mg/kg/day for a 24-hour time period. The swelling diameter at the site of challenge or saline injection was measured with a microcaliper 24 hours thereafter.
An expanded study was carried out as described above except that a scrambled compound control was not used as a control for further inhibitor compounds of Table 1 with larger groups of mice. Statistical analyses were carried out versus injection of vehicle alone.

[4] = 100 mg/kg nebulizer, late (24 hours)

Chain of VLA-4 (P13612 34-1032): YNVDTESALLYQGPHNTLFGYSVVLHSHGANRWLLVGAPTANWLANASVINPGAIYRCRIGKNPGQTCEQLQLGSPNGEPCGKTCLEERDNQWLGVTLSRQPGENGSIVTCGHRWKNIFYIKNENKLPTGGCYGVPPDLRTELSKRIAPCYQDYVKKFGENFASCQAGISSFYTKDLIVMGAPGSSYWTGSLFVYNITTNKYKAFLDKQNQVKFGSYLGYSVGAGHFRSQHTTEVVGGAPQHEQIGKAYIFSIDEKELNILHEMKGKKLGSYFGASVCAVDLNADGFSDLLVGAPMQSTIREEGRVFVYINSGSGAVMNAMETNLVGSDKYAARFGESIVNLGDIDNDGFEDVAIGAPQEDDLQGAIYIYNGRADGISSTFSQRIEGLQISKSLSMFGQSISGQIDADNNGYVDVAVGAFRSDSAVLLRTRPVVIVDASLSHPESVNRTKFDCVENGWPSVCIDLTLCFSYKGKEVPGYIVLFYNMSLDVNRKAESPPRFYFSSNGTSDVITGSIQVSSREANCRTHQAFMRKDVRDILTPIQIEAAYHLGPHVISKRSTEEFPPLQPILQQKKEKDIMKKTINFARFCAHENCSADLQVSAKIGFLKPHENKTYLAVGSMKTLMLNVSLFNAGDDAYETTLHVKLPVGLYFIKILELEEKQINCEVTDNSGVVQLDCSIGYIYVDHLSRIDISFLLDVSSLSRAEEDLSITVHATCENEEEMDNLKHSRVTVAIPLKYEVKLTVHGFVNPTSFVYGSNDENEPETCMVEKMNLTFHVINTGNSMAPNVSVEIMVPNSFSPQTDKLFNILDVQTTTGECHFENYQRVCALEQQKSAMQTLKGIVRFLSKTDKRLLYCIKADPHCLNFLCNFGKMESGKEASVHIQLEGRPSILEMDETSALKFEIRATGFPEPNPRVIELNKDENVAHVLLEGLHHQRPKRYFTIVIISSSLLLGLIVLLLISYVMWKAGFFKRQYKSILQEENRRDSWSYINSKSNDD
Chain of VLA-4 (P05556 21-798): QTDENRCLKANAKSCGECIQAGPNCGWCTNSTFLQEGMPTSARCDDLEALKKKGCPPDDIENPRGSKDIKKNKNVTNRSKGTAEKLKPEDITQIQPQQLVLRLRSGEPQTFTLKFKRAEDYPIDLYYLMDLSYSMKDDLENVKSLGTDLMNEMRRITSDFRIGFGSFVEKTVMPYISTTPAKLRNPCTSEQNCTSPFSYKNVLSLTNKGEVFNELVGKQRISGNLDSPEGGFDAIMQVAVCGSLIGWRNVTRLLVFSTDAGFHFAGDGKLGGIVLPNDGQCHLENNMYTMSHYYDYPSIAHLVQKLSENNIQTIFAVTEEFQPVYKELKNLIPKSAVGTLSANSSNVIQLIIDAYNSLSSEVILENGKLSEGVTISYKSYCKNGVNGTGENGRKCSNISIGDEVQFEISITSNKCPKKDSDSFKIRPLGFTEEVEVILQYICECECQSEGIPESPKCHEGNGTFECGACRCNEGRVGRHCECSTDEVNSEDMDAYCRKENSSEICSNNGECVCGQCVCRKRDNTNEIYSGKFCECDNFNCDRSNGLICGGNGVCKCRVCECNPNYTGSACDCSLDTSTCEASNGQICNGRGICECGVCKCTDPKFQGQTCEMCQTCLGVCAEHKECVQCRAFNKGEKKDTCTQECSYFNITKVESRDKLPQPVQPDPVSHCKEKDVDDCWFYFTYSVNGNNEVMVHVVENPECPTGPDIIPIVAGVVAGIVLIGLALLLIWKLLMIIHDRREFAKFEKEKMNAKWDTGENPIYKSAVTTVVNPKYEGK

Structure (SMILES)	Relative Potency [2]	also measured
CC(C)C[C@H](NC(=O)Cc1ccccc1)C(=O)N[C@@H](CC(=O)O)C(=O)N[C@@H](Cc1ccccc1)C(=O)N1CCOCC1 [1051.01] (PhAc-Leu-Asp-Phe-Morpholide)	709	% Reduction, RL, Early phase ([1]; 100 mg/kg nebulizer, early (2-4 hours)): 80.1%; % Reduction, Cdyn, Early phase ([1]; 100 mg/kg nebulizer, early (2-4 hours), versus challenged controls): 94.4%; % Reduction, Cdyn, Late phase [1, 4]: 86.6%; % Reduction, RL, Late phase [1, 4]: 82.6%; reduction in eosinophils (BAL count) ([1]; after 24 hours, versus untreated, challenged animals): 88.1%; dynamic compliance Cdyn over six hours (FIG. 4A) ([1]; six hours after challenge): stayed at about the initial value; lung resistance RL over six hours (FIG. 4B) ([1]; six hours after challenge): remained between the initial value and about 200% of that value
CCCCCCCCCCCCOC(=O)C[C@H](NC(=O)[C@H](CC(C)C)NC(=O)Cc1ccccc1)C(=O)N[C@@H](Cc1ccccc1)C(=O)N1CCC[C@@H]1C(N)=O [1068.10] (PhAc-LD(X5)F[dP]-NH2)	–	Relative Potency (prodrug compound) [2]: 0
CCCCCCCCCCCCCCOC(=O)C[C@H](NC(=O)[C@H](CC(C)C)NC(=O)Cc1ccccc1)C(=O)N[C@@H](Cc1ccccc1)C(=O)N1CCC[C@@H]1C(N)=O [1068.11] (PhAc-LD(X1)F[dP]-NH2)	–	Relative Potency (prodrug compound) [2]: 0
CCCCCCCCCCCCCCCCCCOC(=O)C[C@H](NC(=O)[C@H](CC(C)C)NC(=O)Cc1ccccc1)C(=O)N[C@@H](Cc1ccccc1)C(=O)N1CCC[C@@H]1C(N)=O [1068.12] (PhAc-LD(X8)F[dP]-NH2)	–	Relative Potency (prodrug compound) [2]: 0
CCN(CC)C(=O)COC(=O)C[C@H](NC(=O)[C@H](CC(C)C)NC(=O)Cc1ccccc1)C(=O)N[C@@H](Cc1ccccc1)C(=O)N1CCC[C@@H]1C(N)=O [1068.13] (PhAc-LD(X4)F[dP]-NH2)	–	Relative Potency (prodrug compound) [2]: 0
CC(C)C[C@H](NC(=O)Cc1ccccc1)C(=O)N[C@@H](CC(=O)O)C(=O)N[C@@H](Cc1ccccc1)C(=O)N1C[C@@H](O)[C@@H](O)C1 [1070.01]	194	–
CC(C)C[C@H](NC(=O)Cc1ccccc1)C(=O)N[C@@H](CC(=O)O)C(=O)N[C@@H](Cc1ccccc1)C(=O)N1CCC(O)CC1 [1070.02]	604	Percent Inhibition of post-challenge swelling [3]: 29%
Cc1ccc(S(=O)(=O)N2CCN(C(=O)[C@H](Cc3ccccc3)NC(=O)[C@H](CC(=O)O)NC(=O)[C@H](CC(C)C)NC(=O)Cc3ccccc3)CC2)cc1 [1111.01]	363	–
CC(C)C[C@H](NC(=O)Cc1ccccc1)C(=O)N[C@@H](CC(=O)O)C(=O)N[C@@H](Cc1ccccc1)C(=O)N1CCSCC1 [1111.02]	450	–
CC(C)C[C@H](NC(=O)Cc1ccccc1)C(=O)N[C@@H](CC(=O)O)C(=O)N[C@@H](Cc1ccccc1)C(=O)N1CCS(=O)(=O)CC1 [1111.03]	1010	–
CC(C)C[C@H](NC(=O)Cc1ccccc1)C(=O)N[C@@H](CC(=O)O)C(=O)N[C@@H](Cc1ccccc1)C(=O)N1CCC(C(=O)O)CC1 [1111.04] (PhAc-LDF[Inp]-OH)	836	–
CC(C)C[C@H](NC(=O)Cc1ccccc1)C(=O)N[C@@H](CC(=O)O)C(=O)N[C@@H](Cc1ccccc1)C(=O)N1CCC(C(N)=O)CC1 [1111.05] (PhAc-LDF[Inp]-NH2)	942	–
CC(C)C[C@H](NC(=O)Cc1ccccc1)C(=O)N[C@@H](CC(=O)O)C(=O)N[C@@H](Cc1ccccc1)C(=O)N1CCN(CC(=O)O)CC1 [1111.06]	2600	Percent Inhibition of post-challenge swelling [3]: 30%
CC(C)C[C@H](NC(=O)Cc1ccccc1)C(=O)N[C@@H](CC(=O)O)C(=O)N[C@@H](Cc1ccccc1)C(=O)N1CCN(CCOCCO)CC1 [1111.07]	510	–
CC(C)C[C@H](NC(=O)Cc1ccccc1)C(=O)N[C@@H](CC(=O)O)C(=O)N[C@@H](Cc1ccccc1)C(=O)N1CC[N+](C)(C)CC1 [1111.08]	218	–
CC(C)C[C@H](NC(=O)Cc1ccccc1)C(=O)N[C@@H](CC(=O)O)C(=O)N[C@@H](Cc1ccccc1)C(=O)N1CCN(CC(N)=O)CC1 [1111.09]	324	–
CC(C)C[C@H](NC(=O)Cc1ccccc1)C(=O)N[C@@H](CC(=O)O)C(=O)N[C@@H](Cc1ccccc1)C(=O)NN1CCOCC1 [1111.10]	98.9	–
NC(=O)[C@H]1CCCN1C(=O)[C@H](Cc1ccccc1)NC(=O)[C@H](CC(=O)O)NC(=O)[C@H](CC1CCCCC1)NC(=O)Cc1ccccc1 [1160.01] (PhAc-[Cha]DF[dP]-NH2)	213	–
CCCC[C@H](NC(=O)Cc1ccccc1)C(=O)N[C@@H](CC(=O)O)C(=O)N[C@@H](Cc1ccccc1)C(=O)N1CCC[C@@H]1C(N)=O [1160.02] (PhAc-[Nle]DF[dP]-NH2)	49	–
CCOC(=O)C[C@H](NC(=O)[C@H](CC(C)C)NC(=O)Cc1ccccc1)C(=O)N[C@@H](Cc1ccccc1)C(=O)N1CCC[C@@H]1C(N)=O [1190.01] (PhAc-LD(OEt)F[dP]-NH2)	–	Relative Potency (prodrug compound) [2]: 0
CC(C)C[C@H](NC(=O)Cc1ccccc1)C(=O)N[C@@H](CC(=O)O)C(=O)N[C@@H](Cc1ccccc1)C(=O)N1CCC(CC(=O)O)CC1 [1190.02]	591	–
CC(C)C[C@H](NC(=O)Cc1ccccc1)C(=O)N[C@@H](CC(=O)O)C(=O)N[C@@H](Cc1ccccc1)C(=O)N1CCN(CCC(=O)O)CC1 [1190.03]	998	–
CC(C)C[C@H](NC(=O)Cc1ccccc1)C(=O)N[C@@H](CC(=O)O)C(=O)N[C@@H](Cc1ccccc1)C(=O)N(C)CC(N)=O [1190.04] (PhAc-LDF[Sar]-NH2)	196	–
CC(C)C[C@H](NC(=O)Cc1ccccc1)C(=O)N[C@@H](CC(=O)O)C(=O)N(C)[C@@H](Cc1ccccc1)C(=O)N1CCC[C@@H]1C(N)=O [1190.05] (PhAc-LD[NMeF][dP]-NH2)	0	–
CC(C)C[C@H](NC(=O)Cc1ccccc1)C(=O)N(C)[C@@H](CC(=O)O)C(=O)N[C@@H](Cc1ccccc1)C(=O)N1CCC[C@@H]1C(N)=O [1190.06] (PhAc-L[NMeD]F[dP]-NH2)	0	–
CC(C)C[C@@H](C(=O)N[C@@H](CC(=O)O)C(=O)N[C@@H](Cc1ccccc1)C(=O)N1CCC[C@@H]1C(N)=O)N(C)C(=O)Cc1ccccc1 [1190.07] (PhAc-[NMeL]DF[dP]-NH2)	318	–
CCCCCCCCCCCCCCCCCCNC(=O)CCCCCNC(=O)[C@@H]1CCCN1C(=O)[C@H](Cc1ccccc1)NC(=O)[C@H](CC(=O)O)NC(=O)[C@H](CC(C)C)NC(=O)Cc1ccccc1 [Compound ID No. 1068.01, phenylacetyl-Leu-Asp-Phe-Pro-NH(CH2)5 C(O)NHC18 H37] (PhAc-LDFP[Ahx]-NHOctadecyl)	–	VLA-4 binding inhibition compared in words [2]: binding inhibition similar to that exhibited by the standard 10-mer compound
CC(C)C[C@H](NC(=O)[C@@H](N)Cc1ccccc1)C(=O)N[C@@H](CC(=O)O)C(=O)N[C@@H](Cc1ccccc1)C(=O)N1CCC[C@@H]1C(N)=O [Compound ID No. 1092.01] (H-FLDF[dP]-NH2)	–	VLA-4 binding inhibition compared in words [2]: binding inhibition better than that of the compound of SEQ ID NO:3
